The target in one experiment is T1, human GPBAR1 receptor (Homo sapiens, UniProt Q8TDU6).
T1 construct: expressed in transfected cells
T1 sequence (Q8TDU6 1-330): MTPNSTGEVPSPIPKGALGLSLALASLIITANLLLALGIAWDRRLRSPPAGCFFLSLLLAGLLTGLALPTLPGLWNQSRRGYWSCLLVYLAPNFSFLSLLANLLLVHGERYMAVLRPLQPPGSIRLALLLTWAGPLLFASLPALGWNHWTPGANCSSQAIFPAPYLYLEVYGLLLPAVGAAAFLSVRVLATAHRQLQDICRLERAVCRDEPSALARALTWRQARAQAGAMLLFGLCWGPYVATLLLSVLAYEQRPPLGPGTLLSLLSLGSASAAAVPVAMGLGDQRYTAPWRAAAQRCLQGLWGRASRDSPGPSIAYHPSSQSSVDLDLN
The experiment in a line: functional cAMP assay in CHO-dhfr(minus) cells expressing human GPBAR1 receptors. Type of experiment: cell-based. Conditions: functional cAMP assay, 30 min at 30° C., read-out: human EC50. How it is done: The final clone was verified by DNA sequence analysis. The plasmid was transfected into CHO cells deficient in dihydrofolate reductase activity (CHO-dhfr−) using Lipofectamine plus (Invitrogen). Clones were isolated in limited dilution conditions and identified by activities in the cAMP assay using lithocholic acid as agonist.
The growth medium was exchanged with Krebs Ringer Bicarbonate buffer with 1 mM IBMX and incubated at 30° C. for 30 min. Compounds were added to a final assay volume of 100 μl and incubated for 30 min at 30° C. […] The time-resolved energy transfer is measured by a TRF reader (Evotec Technologies GmbH, Hamburg Germany), equipped with a ND:YAG laser as excitation source.
EC50 values were determined using Activity Base analysis (ID Business Solution, Limited). […] Specificity for GPBAR1 was tested in non-transfected CHO cells in the same assay as above.
(Changes in cAMP serve as a functional read-out for many G protein-coupled receptors.)
For orientation: EC50 means the concentration needed to bring the measured effect to its halfway point. On to `COC(CCl)CNc1ccc([C@@H](C/C(=N\O)c2ccnc(C)c2)c2ccccc2C)cc1` (stereo partly drawn) [Example 357, (R)-3-[4-(3-Chloro-2-methoxy-propylamino)-phenyl]-1-(2-methyl-pyridin-4-yl)-3-o-tolyl-propan-1-one oxime], for which the EC50 stood at 91 nM.
Same read-out and setting: next, `Cc1ccccc1[C@H](C/C(=N\O)c1ccnc(CO)c1)c1ccc(N2CCC(C(=O)O)CC2)cc1` [Example 374, (R,E)-1-(4-(3-(Hydroxyimino)-3-(2-(hydroxymethyl)pyridin-4-yl)-1-o-tolylpropyl)phenyl)-piperidine-4-carboxylic acid]: 31 nM.
With `Cc1ccccc1[C@H](C/C(=N\O)c1cc(Br)c(=O)n(C)c1)c1ccc(Br)cc1` [Example 252, 3-Bromo-5-{(R)-3-(4-bromo-phenyl)-1-[(E)-hydroxyimino]-3-o-tolyl-propyl}-1-methyl-1H-pyridin-2-one], the EC50 worked out at 10 nM.

The experiment is the same for the next values; noted with them: human EC50, functional cAMP assay, 30 min at 30° C.
For the compound `Cn1cc(/C(CC(c2ccc(Br)cc2)c2ccc(F)cc2Cl)=N/O)ccc1=O` (stereo not shown) [Example 410, (E)-5-(3-(4-bromophenyl)-3-(2-chloro-4-fluorophenyl)-1-(hydroxyimino)propyl)-1-methylpyridin-2(1H)-one], a half-maximal response (EC50) required 11 nM.
Turning to `Cc1ccccc1C(C/C(=N\O)c1ccc(=O)n(C)c1)c1ccc(C(=O)N2CCOCC2)cc1` (stereo not shown) [Example 207, 5-{1-[(E)-Hydroxyimino]-3-[4-(morpholine-4-carbonyl)-phenyl]-3-o-tolyl-propyl}-1-methyl-1H-pyridin-2-one], the EC50 is 711 nM.
Consider `O/N=C(/CC(c1ccccc1)c1ccccc1)c1cc(Cl)nc(Cl)c1` [Example 73, (Z)-1-(2,6-dichloro-pyridin-4-yl)-3,3-diphenyl-propan-1-one oxime], for which the response was half-maximal at 4430 nM (EC50).
Turning to `Cn1cc(/C(CC(c2ccc(-c3ccc(C(=O)O)cc3)cc2)c2ccc(Cl)cc2F)=N/O)ccc1=O` (single isomer, unassigned; (-)) [Example 242, (−)-4′-[1-(4-Chloro-2-fluoro-phenyl)-3-[(E)-hydroxyimino]-3-(1-methyl-6-oxo-1,6-dihydro-pyridin-3-yl)-propyl]-biphenyl-4-carboxylic acid], the EC50 turned out to be 370 nM.
Same read-out and setting: then `Cc1cc(/C(CC(c2ccccc2)c2ccccn2)=N/O)cc(C)n1` (stereo not shown) [Example 68, (E)-1-(2,6-Dimethyl-pyridin-4-yl)-3-phenyl-3-pyridin-2-yl-propan-1-one oxime], with 341 nM; and `Cc1cc(Cl)ccc1C(C/C(=N\O)c1ccc(=O)n(C)c1)c1ccc(-c2ccc(C(=O)NCC(=O)O)cc2)cc1` (stereo not shown) [Example 229, (E)-2-(4′-(1-(4-chloro-2-methylphenyl)-3-(hydroxyimino)-3-(1-methyl-6-oxo-1,6-dihydropyridin-3-yl)propyl)biphenyl-4-ylcarboxamido)acetic acid], with 22 nM; and `Cn1cc(/C(CC(c2ccc(S(C)(=O)=O)cc2)c2cc(Cl)ccc2Cl)=N/O)ccc1=O` (stereo not shown) [Example 350, (E)-5-(3-(2,5-Dichlorophenyl)-1-(hydroxyimino)-3-(4-(methylsulfonyl)phenyl)propyl)-1-methylpyridin-2(1H)-one], with 129 nM.
As for `Cc1cc(Cl)ccc1C(C/C(=N\O)c1ccc(=O)n(CC(N)=O)c1)c1ccc(S(C)(=O)=O)cc1` (stereo not shown) [Example 343, (E)-2-(5-(3-(4-Chloro-2-methylphenyl)-1-(hydroxyimino)-3-(4-(methylsulfonyl)-phenyl)propyl)-2-oxopyridin-1(2H)-yl)acetamide], the EC50 came to 3750 nM.
Compound `Cc1ccccc1[C@H](C/C(=N\O)c1cc(Cl)ncc1F)c1ccc(-c2ccc(C(=O)O)cc2)cc1` [Example 292, 4′-{(R)-3-(2-Chloro-5-fluoro-pyridin-4-yl)-3-[(E)-hydroxyimino]-1-o-tolyl-propyl}-biphenyl-4-carboxylic acid] had an EC50 of 6 nM.
On the same count and under the same terms, then `CCCC(C/C(=N\O)c1ccc(=O)n(C)c1)c1ccc(Br)cc1` (stereo not shown) [Example 174, 5-{3-(4-Bromo-phenyl)-1-[(E)-hydroxyimino]-hexyl}-1-methyl-1H-pyridin-2-one], with 268 nM; and `Cc1cc(Cl)ccc1C(C/C(=N\O)c1ccc(=O)n(C)c1)c1ccc(CO)cc1` (stereo not shown) [Example 337, (E)-5-(3-(4-Chloro-2-methylphenyl)-1-(hydroxyimino)-3-(4-(hydroxymethyl)phenyl)-propyl)-1-methylpyridin-2(1H)-one], with 14 nM.
Compound `Cn1cc(/C(C[C@H](c2ccc(-c3ccc(C(=O)O)c(F)c3)cc2)c2ccc(Cl)cc2F)=N/O)ccc1=O` (single isomer, unassigned) [Example 463, 4′-[(−)-1-(4-Chloro-2-fluoro-phenyl)-3-[(E)-hydroxyimino]-3-(1-methyl-6-oxo-1,6-dihydro-pyridin-3-yl)-propyl]-3-fluoro-biphenyl-4-carboxylic acid] had an EC50 of 154 nM.
Still for that read-out and setting: next, `Cc1cc(/C(CC(c2ccc(C(=O)NCCN3CCS(=O)(=O)CC3)cc2)c2ccc(F)cc2F)=N/O)ccn1` (stereo not shown) [Example 441, 4-[1-(2,4-Difluoro-phenyl)-3-[(E)-hydroxyimino]-3-(2-methyl-pyridin-4-yl)-propyl]-N-[2-(1,1-dioxo-1λ^6-thiomorpholin-4-yl)-ethyl]-benzamide]: 39 nM; `Cc1ccccc1C(C/C(=N\O)c1ccc(=O)n(C)c1)c1ccc(C(=O)NCCO)cc1` (stereo not shown) [Example 208, N-(2-Hydroxy-ethyl)-4-[3-[(E)-hydroxyimino]-3-(1-methyl-6-oxo-1,6-dihydro-pyridin-3-yl)-1-o-tolyl-propyl]-benzamide]: 93 nM; `Cc1cc(/C(C[C@H](c2ccc(N3CCC(C(=O)NCCS(=O)(=O)O)CC3)cc2)c2ccccc2C)=N/O)ccn1` [Example 370, (R,E)-2-(1-(4-(3-(hydroxyimino)-3-(2-methylpyridin-4-yl)-1-o-tolylpropyl)phenyl)-piperidine-4-carboxamido)ethanesulfonic acid]: 1 nM.
Same read-out and setting: next, `Cc1cc(/C(CC(c2ccc(-c3ccc(C(=O)O)c(F)c3)cc2)c2ccccc2C)=N/O)ccn1` (stereo not shown) [Example 131, 3-Fluoro-4′-[3-[(E)-hydroxyimino]-3-(2-methyl-pyridin-4-yl)-1-o-tolyl-propyl]-biphenyl-4-carboxylic acid]: 14 nM.
Same read-out and setting: then `COC(=O)c1ccc(-c2cccc(C(CC(=NO)c3ccnc(C)c3)c3ccccc3C)c2)cc1F` (racemic) [Example 100, 3-Fluoro-3′-[3-[hydroxyimino]-3-(2-methyl-pyridin-4-yl)-1-o-tolyl-propyl]-biphenyl-4-carboxylic acid methyl ester], with 514 nM.
`Cc1ccccc1C(C/C(=N\O)c1ccc(=O)n(C)c1)c1ccc(C(=O)NC[C@@H](C)O)cc1` (stereo partly drawn) [Example 248, 4-((E)-3-(Hydroxyimino)-3-(1-methyl-6-oxo-1,6-dihydropyridin-3-yl)-1-o-tolylpropyl)-N-((R)-2-hydroxypropyl)benzamide] came in with an EC50 of 70 nM.
In turn, `Cc1cc(/C(C[C@H](c2ccc(C3CN(C(=O)OC(C)(C)C)C3)cc2)c2ccccc2C)=N/O)ccn1` [Example 481, (R,E)-tert-Butyl 3-(4-(3-(hydroxyimino)-3-(2-methylpyridin-4-yl)-1-o-tolylpropyl)phenyl)-azetidine-1-carboxylate] had an EC50 of 153 nM.
`Cn1cc(/C(CC(c2ccc(-c3ccc(C(=O)O)c(F)c3)cc2)c2ccc(Cl)cc2Cl)=N/O)ccc1=O` (single isomer, unassigned) [Example 475, 4′-[(+)-1-(2,4-dichloro-phenyl)-3-[(E)-hydroxyimino]-3-(1-methyl-6-oxo-1,6-dihydro-pyridin-3-yl)-propyl]-3-fluoro-biphenyl-4-carboxylic acid]: a half-maximal response (EC50) required 166 nM.
`CS(=O)(=O)c1cccc(-c2cccc(C(C/C(=N\O)c3ccncc3)c3ccccc3)c2)c1` (stereo not shown) [Example 23, (E)-3-(3′-Methanesulfonyl-biphenyl-3-yl)-3-phenyl-1-pyridin-4-yl-propan-1-one oxime] registered an EC50 of 492 nM.
The compound `Cc1cc(/C(C[C@H](c2ccc(N3CCC(O)CC3)cc2)c2ccccc2C)=N/O)ccn1` [Example 145, (E,R)-3-(4-(4-Hydroxypiperidin-1-yl)phenyl)-1-(2-methylpyridin-4-yl)-3-o-tolylpropan-1-one oxime] yielded a half-maximal effective concentration (EC50) of 1 nM.
On the same count and under the same terms, then `Cc1cc(Cl)ccc1C(C/C(=N\O)c1ccc(=O)n(C)c1)c1ccc(OCCO)c(F)c1` (stereo not shown) [Example 328, 5-{3-(4-Chloro-2-methyl-phenyl)-3-[3-fluoro-4-(2-hydroxy-ethoxy)-phenyl]-1-[(E)-hydroxyimino]-propyl}-1-methyl-1H-pyridin-2-one], with 11 nM; and `Cn1cc(/C(CC(c2cccc(S(C)(=O)=O)c2)c2ccc(Cl)cc2F)=N/O)ccc1=O` (stereo not shown) [Example 315, (E)-5-(3-(4-Chloro-2-fluorophenyl)-1-(hydroxyimino)-3-(3-(methylsulfonyl)phenyl)propyl)-1-methylpyridin-2(1H)-one], with 647 nM; and `Cc1cc(/C(CC(c2ccc(-c3ccc(C(=O)O)cc3)cc2)c2ccc(Cl)cc2C)=N/O)ccn1` (stereo not shown) [Example 139, (E)-4′-(1-(4-chloro-2-methylphenyl)-3-(hydroxyimino)-3-(2-methylpyridin-4-yl)propyl)biphenyl-4-carboxylic acid], with 17 nM.

(Values after US8765730B2 (Hoffmann-La Roche Inc, priority 2010, dated 2014).)
